Biological target: ATP-dependent translocase ABCB1 (Homo sapiens, UniProt P08183)
Assay: TP_TRANSPORTER: inhibition of Rhodamine 123 efflux (R123: 5.2 micro;M) in MDR1 transfected L-5178 cells
Format: functional, cell-based
Conditions: mouse

Chain of ATP-dependent translocase ABCB1 (P08183 whole entry): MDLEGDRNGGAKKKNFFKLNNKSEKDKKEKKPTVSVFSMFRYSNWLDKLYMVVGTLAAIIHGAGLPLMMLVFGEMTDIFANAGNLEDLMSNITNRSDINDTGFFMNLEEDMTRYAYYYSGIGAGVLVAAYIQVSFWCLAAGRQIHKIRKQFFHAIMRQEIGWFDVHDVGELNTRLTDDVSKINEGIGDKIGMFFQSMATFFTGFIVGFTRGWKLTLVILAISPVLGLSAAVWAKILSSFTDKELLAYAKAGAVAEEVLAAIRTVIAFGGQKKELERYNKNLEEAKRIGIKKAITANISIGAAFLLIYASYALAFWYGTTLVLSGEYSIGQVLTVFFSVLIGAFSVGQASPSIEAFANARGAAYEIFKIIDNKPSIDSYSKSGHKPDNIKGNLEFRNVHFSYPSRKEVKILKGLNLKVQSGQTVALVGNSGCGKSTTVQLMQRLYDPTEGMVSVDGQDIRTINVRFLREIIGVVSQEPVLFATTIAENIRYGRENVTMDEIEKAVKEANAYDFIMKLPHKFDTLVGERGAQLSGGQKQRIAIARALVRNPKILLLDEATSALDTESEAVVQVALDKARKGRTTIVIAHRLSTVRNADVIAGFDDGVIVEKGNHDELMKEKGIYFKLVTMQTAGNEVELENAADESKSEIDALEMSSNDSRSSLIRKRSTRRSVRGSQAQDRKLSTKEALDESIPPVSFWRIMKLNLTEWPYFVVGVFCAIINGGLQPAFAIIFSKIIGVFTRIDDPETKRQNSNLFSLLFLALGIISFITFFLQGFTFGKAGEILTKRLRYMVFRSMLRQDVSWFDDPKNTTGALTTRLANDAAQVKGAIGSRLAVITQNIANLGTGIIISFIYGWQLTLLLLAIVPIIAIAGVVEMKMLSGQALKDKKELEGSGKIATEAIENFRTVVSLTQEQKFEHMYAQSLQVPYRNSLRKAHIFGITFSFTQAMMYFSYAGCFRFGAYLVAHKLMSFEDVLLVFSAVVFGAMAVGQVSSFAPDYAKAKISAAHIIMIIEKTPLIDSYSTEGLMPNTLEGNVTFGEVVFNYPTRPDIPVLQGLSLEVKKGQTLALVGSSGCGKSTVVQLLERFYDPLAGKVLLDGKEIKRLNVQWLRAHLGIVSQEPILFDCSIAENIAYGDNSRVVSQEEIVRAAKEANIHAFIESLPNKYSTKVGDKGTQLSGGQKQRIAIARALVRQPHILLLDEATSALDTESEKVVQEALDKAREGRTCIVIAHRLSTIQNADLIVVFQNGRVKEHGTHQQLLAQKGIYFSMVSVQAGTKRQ

For PERSIMMON PEEL EXTRACTS, the Activity was “inhibitor [+]”.
